Reference: PMC9515952, “Tentative exploration of pharmacodynamic substances: Pharmacological effects, chemical compositions, and multi-components pharmacokinetic characteristics of ESZWD in CHF-HKYd rats” (Frontiers in Cardiovascular Medicine, 2022)

How the values were obtained:
[1] = Pharmacokinetics of four components of ESZWD in CHF-HKYd rat serum by UPLC-MS/MS; format: in vivo; conditions: CHF-HKYd rat serum after oral administration of ESZWD, mean ± SD, n = 6
Description: (§1) All rats were randomly divided into control group, model group, ESZWD low-dose (3.96 g/kg), medium-dose (7.92 g/kg), high-dose (15.84 g/kg) groups, and positive control group (benazepril, 0.5 mg/kg), with six rats in each group. The CHF-HKYd was established after 1 week of feeding. ESZWD and benazepril were administered by gavage separately for 4 weeks after successful modeling, except for the control group. Blood was collected for 5, 10, 20, 30, 45 min, 1, 2, 4, 6, 8, 12, and 24 h, standing for 2 h and centrifuged at 4°C, 3,500 rpm for 10 min, the supernatant was retained. The state of rats was observed and the urine volume at 24 h was measured. The structure and function of rat heart were evaluated by doppler ultrasonography. Serum biomarkers including myocardial injury indicators NT-proBNP, angiotensinII (AngII), aldosterone (ALD), reactive oxygen species (ROS), superoxide dismutase (SOD), malondialdehyde (MDA), and tumor necrosis factor α (TNF-α) and interleukin 6 (IL-6) were detected by ELISA.
Chromatographic analysis was performed using ACQUITY UPLC BEH C18 column (2.1 × 50 mm, […]), the mobile phase was acetonitrile (A) 0.1% formic acid water (B), the flow rate was set as 0.2 mL·min^−1, the column temperature was 35°C, the injection volume was 2 μL, and the gradient conditions were as follows: 0–8 min: 6–11%A, 8–23 min: 11–19%A, 23–45 min: 19–38%A, 45–55 min: 38–47%A, 55–55.1 min: 47–52%A, 55.1–65 min: 52–90%A, 65–66 min: 90–6%A of UPLC-Q-TOF/MS analysis and 0–3 min: 8–10%A, 3–3.5 min: 10–70% A, 3.5–5: 70–80%A, 5–5.1 min: 80–8% A, 5.1–6 min: 8% A of UPLC-MS/MS.
Mass spectrometric detection of UPLC-MS/MS analysis was carried out on electrospray ionization (ESI) ion source, multiple reaction monitoring (MRM) mode, ion spray voltage of 5,500 V, the curtain gas and collision gas were 40 and 9 kPa, respectively, declustering potential (DP) and collision voltage (CE) are shown in Table 1.

[2] = Stability of four compounds in rat serum (UPLC-MS/MS method validation); conditions: n = 5; for Stability, Room temperature, Mean ± SD: 4 h at room temperature (25°C); for Stability, Automatic sampler, Mean ± SD: 8 h in the automatic sampler; for Stability, Long-term freeze, Mean ± SD: 7 d at −80°C; for Stability, Multigelation, Mean ± SD: three freeze and thaw cycles
Description: The stability of all probe drugs was evaluated by LQC and HQC samples under different experimental conditions, including short-term stability [4 h at room temperature (25°C), 8 h in the automatic sampler, and three freeze and thaw cycles, respectively] and long-term stability (7 d at −80°C).

AngII = experiment: Serum angiotensinII (AngII) by ELISA in CHF-HKYd rats; format: in vivo, rat; conditions: benazepril 0.5 mg/kg, gavage 4 weeks
Description: (§2) SPF SD male rats were anesthetized by intraperitoneal injection of 25% urethane (1,000 mg/kg). Cut off the skin tissue for about 1 cm, blunt away from bilateral neck muscles, separate and excise the bilateral thyroid glands, and the parathyroid glands were retained. The mixture of noradrenaline and normal saline (1:4,000) was used to stop intraoperative bleeding during the operation, the muscle and skin were sutured and 0.1% calcium gluconate solution was given postoperatively. On the 10th day after thyroidectomy, the rats were intraperitoneally injected with 0.02% doxorubicin hydrochloride (1 mL/100 g), twice a week for 3 weeks.
as §1, with “ESZWD and benazepril were administered by gavage separately for 4 weeks after successful modeling, except for the control group. Blood was collected for 5, 10, 20, 30, 45 min, 1, 2, 4, 6, 8, 12, and 24 h, standing for 2 h and centrifuged at 4°C, 3,500 rpm for 10 min, the supernatant was retained.” left out

ALD = experiment: Serum aldosterone (ALD) by ELISA in CHF-HKYd rats; format: in vivo, rat; conditions: benazepril 0.5 mg/kg, gavage 4 weeks
Description: as §2
as §1, with “ESZWD and benazepril were administered by gavage separately for 4 weeks after successful modeling, except for the control group. Blood was collected for 5, 10, 20, 30, 45 min, 1, 2, 4, 6, 8, 12, and 24 h, standing for 2 h and centrifuged at 4°C, 3,500 rpm for 10 min, the supernatant was retained.” left out

ROS = experiment: Serum reactive oxygen species (ROS) by ELISA in CHF-HKYd rats; format: in vivo, rat; conditions: benazepril 0.5 mg/kg, gavage 4 weeks
Description: as §2
as §1, with “ESZWD and benazepril were administered by gavage separately for 4 weeks after successful modeling, except for the control group. Blood was collected for 5, 10, 20, 30, 45 min, 1, 2, 4, 6, 8, 12, and 24 h, standing for 2 h and centrifuged at 4°C, 3,500 rpm for 10 min, the supernatant was retained.” left out

TNF-α = experiment: Serum TNF-α by ELISA in CHF-HKYd rats; format: in vivo, rat; conditions: benazepril 0.5 mg/kg, gavage 4 weeks
Description: as §2
as §1, with “ESZWD and benazepril were administered by gavage separately for 4 weeks after successful modeling, except for the control group. Blood was collected for 5, 10, 20, 30, 45 min, 1, 2, 4, 6, 8, 12, and 24 h, standing for 2 h and centrifuged at 4°C, 3,500 rpm for 10 min, the supernatant was retained.” left out

IL-6 = experiment: Serum IL-6 by ELISA in CHF-HKYd rats; format: in vivo, rat; conditions: benazepril 0.5 mg/kg, gavage 4 weeks
Description: as §2
as §1, with “ESZWD and benazepril were administered by gavage separately for 4 weeks after successful modeling, except for the control group. Blood was collected for 5, 10, 20, 30, 45 min, 1, 2, 4, 6, 8, 12, and 24 h, standing for 2 h and centrifuged at 4°C, 3,500 rpm for 10 min, the supernatant was retained.” left out

CHF-HKYd rats = experiment: Doppler echocardiography of cardiac function in CHF-HKYd rats; format: in vivo, rat; conditions: benazepril 0.5 mg/kg by gavage for 4 weeks (positive control)
Description: as §2
The general state of rats was observed: the basic criteria for the symptoms of HKYd were dark purple coating on the tongue, asthma, edema, fear of cold, emaciation, loose stools, sleepiness, hypotrichosis, etc. The urine volume of rats was measured: 1 week after the last injection, 24 h urine volume of rats in the normal and model group were collected in the metabolic cage, and the urine samples were frozen at −80°C. Evaluation of cardiac function in rats by Doppler echocardiography: After urine collection, the rats were anesthetized and fixed in the supine position. The precardiac area of the rats was depilated and the coupling agent was applied, a frequency of 12 MHz. M-mode ultrasound and pulsed Doppler ultrasound were used to detect diastolic interventricular septum (IVSD), left ventricular internal diastolic diameter (LVIDd), left ventricular posterior wall diastolic diameter (LVPWd), systolic interventricular septum (IVSs) and left ventricular internal systolic diameter (LVIDs), left ventricular posterior wall systolic diameter (LVPWs), stroke volume (SV), left ventricular ejection fraction (LVEF), left ventricular short-axis systolic fraction (FS), and the ratio of peak flow velocity between early and late mitral valve diastole (E/A) through the left ventricular macropinacoid of left sternal bone and four-chamber view. Neuroendocrine factor detection: After the echocardiography, 1 mL of blood was taken from the canthus of rats in each group, blood was placed in the water at 37°C for 1.5 h, centrifuged to obtain serum (3,000 rpm, 10 min), frozen at −80°C. The contents of serum NT-proBNP, T3, and T4 were detected by ELISA.
as §1

NT-proBNP = experiment: Serum NT-proBNP by ELISA in CHF-HKYd rats; format: in vivo, rat; conditions: benazepril 0.5 mg/kg, gavage 4 weeks
Description: as §2
The general state of rats was observed: the basic criteria for the symptoms of HKYd were dark purple coating on the tongue, asthma, edema, fear of cold, emaciation, loose stools, sleepiness, hypotrichosis, etc. The urine volume of rats was measured: 1 week after the last injection, 24 h urine volume of rats in the normal and model group were collected in the metabolic cage, and the urine samples were frozen at −80°C. Evaluation of cardiac function in rats by Doppler echocardiography: After urine collection, the rats were anesthetized and fixed in the supine position. The precardiac area of the rats was depilated and the coupling agent was applied, a frequency of 12 MHz. […] The contents of serum NT-proBNP, T3, and T4 were detected by ELISA. […]

MDA = experiment: Serum malondialdehyde (MDA) by ELISA in CHF-HKYd rats; format: in vivo, rat; conditions: benazepril 0.5 mg/kg, gavage 4 weeks
Description: as §2
as §1, with “ESZWD and benazepril were administered by gavage separately for 4 weeks after successful modeling, except for the control group. Blood was collected for 5, 10, 20, 30, 45 min, 1, 2, 4, 6, 8, 12, and 24 h, standing for 2 h and centrifuged at 4°C, 3,500 rpm for 10 min, the supernatant was retained.” left out

[3] = added 20 ng/mL (salsolinol) or 1 ng/mL (others)
[4] = added 100 ng/mL (salsolinol) or 10 ng/mL (others)
[5] = added 750 ng/mL (salsolinol) or 150 ng/mL (others)

CCN1C[C@]2(COC)[C@H](O)C[C@H](OC)[C@@]34[C@@H]5C[C@@]6(O)[C@H](OC(=O)c7ccccc7)[C@@H]5[C@@](OC(C)=O)([C@@H]([C@H](OC)[C@H]23)[C@@H]14)[C@@H](O)[C@@H]6OC [Aconitine]
V/F [1]: 2679 ± 1574 L/kg | AUC(0-inf) ([1]; Sprague-Dawley (SD), in vivo): 50.1 ± 16 ng·h/mL | AUC(0-t) ([1]; Sprague-Dawley (SD), in vivo): 48.9 ± 16.4 ng·h/mL | half-life ([1]; Sprague-Dawley (SD), in vivo): 4.24 ± 1.83 h | CL/F ([1]; Sprague-Dawley (SD), in vivo, read-out: CL/F (converted)): 425 L/h/kg | Cmax ([1]; Sprague-Dawley (SD), in vivo, read-out: Cmax): 8.96 ± 2.22 ng/mL | Tmax ([1]; Sprague-Dawley (SD), in vivo, read-out: Tmax): 0.75 h | half-life ([1]; Sprague-Dawley, in vivo): ~4 h | Stability, Room temperature, Mean ± SD [2, 3]: 1.049 ± 0.05 ng/mL | Stability, Room temperature, Mean ± SD [2, 4]: 9.558 ± 0.29 ng/mL | Stability, Room temperature, Mean ± SD [2, 5]: 163.7 ± 5.25 ng/mL | Stability, Automatic sampler, Mean ± SD [2, 3]: 1.087 ± 0.12 ng/mL | Stability, Automatic sampler, Mean ± SD [2, 4]: 9.053 ± 0.24 ng/mL | Stability, Automatic sampler, Mean ± SD [2, 5]: 162.6 ± 9.72 ng/mL | Stability, Long-term freeze, Mean ± SD [2, 3]: 1.082 ± 0.05 ng/mL | Stability, Long-term freeze, Mean ± SD [2, 4]: 10.05 ± 0.97 ng/mL | Stability, Long-term freeze, Mean ± SD [2, 5]: 157.4 ± 3.86 ng/mL | Stability, Multigelation, Mean ± SD [2, 3]: 1.125 ± 0.11 ng/mL | Stability, Multigelation, Mean ± SD [2, 4]: 9.042 ± 0.48 ng/mL | Stability, Multigelation, Mean ± SD [2, 5]: 156.9 ± 8.39 ng/mL

CCOC(=O)[C@H](CCc1ccccc1)N[C@H]1CCc2ccccc2N(CC(=O)O)C1=O [Benazepril, benazepril]
serum AngII level vs model group (AngII): significantly reduced | serum ALD level vs model group (ALD): significantly reduced | serum ROS level vs model group (ROS): significantly reduce | serum TNF-α level vs model group (TNF-α): significantly reduced | serum IL-6 level vs model group (IL-6): significantly reduced | E/A (CHF-HKYd rats): 1.794 ± 0.28 | FS (CHF-HKYd rats): 60.31 ± 8.10 % | IVSd (CHF-HKYd rats): 1.800 ± 0.62 mm | IVSs (CHF-HKYd rats): 3.425 ± 0.88 mm | LVEF (CHF-HKYd rats): 92.30 ± 4.09 % | LVIDd (CHF-HKYd rats): 5.950 ± 1.28 mm | LVIDs (CHF-HKYd rats): 2.350 ± 0.72 mm | LVPWd (CHF-HKYd rats): 1.900 ± 0.67 mm | LVPWs (CHF-HKYd rats): 3.525 ± 0.79 mm | SV (CHF-HKYd rats): 0.4950 ± 0.25 mL | serum NT-proBNP level vs model group (NT-proBNP): significantly reduced | serum MDA level vs model group (MDA): significantly reduce
